The results in this text go back to the NIST ThermoML archive (doi:10.1016/j.jct.2015.12.019).

Each structure is given as a SMILES string. Numbers after ± are expanded uncertainties.

The nature of the data set: refractive index (Na D-line) (dimensionless). The following applies: 303.15 K; 101.33 kPa; Liquid; Standard Abbe refractometry.
For the compound `CC(C)C(=O)O` [2-methylpropanoic acid], the refractive index stood at 1.3913 ± 0.018.
With `CCCCCCC` [heptane], the refractive index was 1.3844 ± 0.018.
`O=S1(=O)CCCC1` [sulfolane]: the refractive index was 1.4815 ± 0.018.

The refractive index is a measure of how strongly the sample bends light.
